According to patent US12528767B2, “HDAC6 inhibitors and uses thereof” (Eikonizo Therapeutics, Inc., priority 2019, dated 2026):
Like-named read-outs stand apart in the source and are kept apart here.

How the values were obtained:
Full length Human HDAC6 = target: T1, Full length Human HDAC6 (Homo sapiens, UniProt Q9UBN7); settings: for Selectivity (6 v 8) (fold): ratio of HDAC8 IC50/HDAC6 IC50
T1 sequence (Q9UBN7 1-1215): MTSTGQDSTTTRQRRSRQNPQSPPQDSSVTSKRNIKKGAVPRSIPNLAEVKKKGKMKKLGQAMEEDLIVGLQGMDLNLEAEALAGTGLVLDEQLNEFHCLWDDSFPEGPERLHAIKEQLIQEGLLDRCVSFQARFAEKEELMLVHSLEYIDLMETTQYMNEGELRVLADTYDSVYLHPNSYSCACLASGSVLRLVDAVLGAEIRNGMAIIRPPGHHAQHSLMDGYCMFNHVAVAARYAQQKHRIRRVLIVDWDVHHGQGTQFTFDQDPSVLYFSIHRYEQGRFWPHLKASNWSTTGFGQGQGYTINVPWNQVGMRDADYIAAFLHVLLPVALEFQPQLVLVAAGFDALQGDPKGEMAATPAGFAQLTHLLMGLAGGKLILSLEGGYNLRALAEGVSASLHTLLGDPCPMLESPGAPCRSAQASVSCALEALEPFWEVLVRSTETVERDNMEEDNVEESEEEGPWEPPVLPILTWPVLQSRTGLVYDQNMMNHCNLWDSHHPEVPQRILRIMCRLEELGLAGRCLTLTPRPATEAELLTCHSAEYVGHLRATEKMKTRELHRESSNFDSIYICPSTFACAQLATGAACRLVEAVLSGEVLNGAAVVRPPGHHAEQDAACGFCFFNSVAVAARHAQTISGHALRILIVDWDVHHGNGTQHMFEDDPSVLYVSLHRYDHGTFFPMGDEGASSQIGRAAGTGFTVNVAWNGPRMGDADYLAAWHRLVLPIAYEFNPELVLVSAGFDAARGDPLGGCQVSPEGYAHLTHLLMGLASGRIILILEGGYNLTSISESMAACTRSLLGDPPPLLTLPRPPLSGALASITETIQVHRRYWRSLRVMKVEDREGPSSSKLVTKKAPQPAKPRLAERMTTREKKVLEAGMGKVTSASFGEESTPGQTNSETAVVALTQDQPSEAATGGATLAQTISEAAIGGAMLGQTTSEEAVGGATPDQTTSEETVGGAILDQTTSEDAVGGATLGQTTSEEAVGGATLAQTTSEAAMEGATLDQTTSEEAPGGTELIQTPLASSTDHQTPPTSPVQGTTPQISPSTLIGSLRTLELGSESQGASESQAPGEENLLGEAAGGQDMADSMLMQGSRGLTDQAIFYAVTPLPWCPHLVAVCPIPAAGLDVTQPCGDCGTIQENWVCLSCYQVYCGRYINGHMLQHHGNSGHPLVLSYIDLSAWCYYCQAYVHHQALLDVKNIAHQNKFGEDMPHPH

Full length Human HDAC8 = target: T2, Full length Human HDAC8 (Homo sapiens, UniProt Q9BY41)
T2 sequence (Q9BY41 1-377): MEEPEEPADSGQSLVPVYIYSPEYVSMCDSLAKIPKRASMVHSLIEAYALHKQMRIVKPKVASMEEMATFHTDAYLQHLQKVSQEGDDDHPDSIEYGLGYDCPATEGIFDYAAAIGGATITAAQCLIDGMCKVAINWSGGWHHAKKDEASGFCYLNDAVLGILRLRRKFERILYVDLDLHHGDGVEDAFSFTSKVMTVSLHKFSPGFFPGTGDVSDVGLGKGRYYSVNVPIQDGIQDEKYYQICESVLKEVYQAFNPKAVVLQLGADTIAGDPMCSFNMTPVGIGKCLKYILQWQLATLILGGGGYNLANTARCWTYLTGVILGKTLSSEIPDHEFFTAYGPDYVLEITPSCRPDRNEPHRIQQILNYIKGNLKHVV

Compound | Selectivity (6 v 8) (fold) (Full length Human HDAC6; Table 1, number) | Selectivity (6 v 8) (fold) (Full length Human HDAC6; Table 1, range class) | IC50 (Full length Human HDAC8) [nM] | IC50 (Full length Human HDAC6) [nM]
CC[C@H](c1ccccc1)N1CCc2cc(C(=O)NO)cc(F)c2C1 (single isomer, unassigned) [compound 30] | 262.4 | IV (IV: >100-1000) |  | 
O=C(NO)c1ccc(CN2CCCC3(CCCCC3)C2)c(F)c1 [compound 64] |  |  | 1000 to 10000 | 1 to 100
O=C(NO)c1ccc(CN2CC3(COC3)C2)c(F)c1 [compound 72] | 44.8 | III (III: >10-100) | 100 to 1000 | 1 to 100
O=C(NO)c1cc(F)c(CN2C3CCC2COC3)cc1F [compound 50] | 45.5 | III (III: >10-100) | 1000 to 10000 | 1 to 100
CC[C@H]1CCCN1Cc1ccc(C(=O)NO)cc1F (single isomer, unassigned) [compound 49] | 15.4 | III (III: >10-100) |  | 
O=C(NO)c1ccc(CN2CC3(CCOC3)C2)c(F)c1 [compound 68] | 27.9 | III (III: >10-100) | 1000 to 10000 | 1 to 100
CC1(C)C[C@@H]2Cc3cc(C(=O)NO)cc(F)c3CN2C1 (single isomer, unassigned) [compound 126] | 37.4 | III (III: >10-100) |  | 
O=C(NO)c1cc(F)c2c(c1)C[C@@H]1CCC3(CCCCC3)CN1C2 (single isomer, unassigned) [compound 137] | 126.4 | IV (IV: >100-1000) |  | 
O=C(NO)c1ccc2c(c1)CN1CCC[C@H]21 (single isomer, unassigned) [compound 164] | 2.3 | II (II: >1-10) |  | 
CN1Cc2cc(C(=O)NO)ccc2[C@H]2CCCN21 (single isomer, unassigned) [compound 161] | 2 | II (II: >1-10) |  | 
O=C(NO)c1cc(F)c2c(c1)C[C@@H]1COCCN1C2 (single isomer, unassigned) [compound 129] | >2.9 | V (V: >1000) |  | 
O=C(NO)c1ccc2c(c1)CCN1CCCC[C@@H]21 (single isomer, unassigned) [compound 89] | 3.1 | II (II: >1-10) |  | 
O=C(NO)c1ccc2c(c1)CN1CCCC[C@H]1C2 (single isomer, unassigned) [compound 144] | 26.7 | III (III: >10-100) |  | 
CN1Cc2cc(C(=O)NO)ccc2[C@@H]2CCCN21 (single isomer, unassigned) [compound 160] | 1.8 | II (II: >1-10) |  | 
CC[C@@H]1CCCN1Cc1ccc(C(=O)NO)cc1F (single isomer, unassigned) [compound 48] | 15.6 | III (III: >10-100) |  | 
O=C(NO)c1ccc2c(c1)C[C@H]1CCCN1C2 (single isomer, unassigned) [compound 122] | 14.5 | III (III: >10-100) |  | 
O=C(NO)c1ccc2c(c1)CCN1CCCC[C@H]21 (single isomer, unassigned) [compound 90] | 3.6 | II (II: >1-10) |  | 
O=C(NO)c1cc(F)c2c(c1)C[C@H]1COCCN1C2 (single isomer, unassigned) [compound 130] | >2.8 | V (V: >1000) |  | 
O=C(NO)c1ccc2c(c1)CCN1CCC[C@H]21 (single isomer, unassigned) [compound 148] | 1.9 | II (II: >1-10) |  | 
